Reference: paper PMC7760838, “Synthesis, Biological, and Computational Evaluation of Antagonistic, Chiral Hydrobenzoin Esters of Arecaidine Targeting mAChR M1” (Pharmaceuticals, 2020)

Tests used:
human mAChR M2 = biological target: T1, human mAChR M2 (Homo sapiens, UniProt P08172); assay: competitive radioligand binding assay with [3H]NMS on CHO cell membranes, M2; settings: n ≥ 3, ± standard deviation, read-out: Inhibition constants (Ki) M2
T1 construct: host or cells: CHO-K1
T1 sequence (P08172 1-466): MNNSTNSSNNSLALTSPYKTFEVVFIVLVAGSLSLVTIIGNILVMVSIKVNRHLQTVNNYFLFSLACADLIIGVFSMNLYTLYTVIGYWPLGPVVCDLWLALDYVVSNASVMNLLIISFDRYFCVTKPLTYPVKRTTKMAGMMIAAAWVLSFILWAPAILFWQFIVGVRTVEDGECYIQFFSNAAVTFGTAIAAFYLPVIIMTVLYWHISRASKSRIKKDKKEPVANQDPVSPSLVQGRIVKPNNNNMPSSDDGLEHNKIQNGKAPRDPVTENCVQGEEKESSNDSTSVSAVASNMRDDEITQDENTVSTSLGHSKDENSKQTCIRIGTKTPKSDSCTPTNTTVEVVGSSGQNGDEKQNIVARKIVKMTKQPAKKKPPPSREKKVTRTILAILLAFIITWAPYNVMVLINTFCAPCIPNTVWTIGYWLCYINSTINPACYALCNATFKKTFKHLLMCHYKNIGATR
Procedure: (§1) Cell membranes bearing human mAChRs M1-M5 were prepared as described previously. In short, stably transfected CHO cells were grown to confluence in T175 flasks, washed with ice-cold DPBS, and suspended in 2 mL 10 mM Tris/HCl, 1 mM EDTA-buffer (pH 7.4), and 200 µL protease inhibitor using a cell scraper. A cell homogenate was prepared by passing the cell suspension through a G29 needle and subsequently centrifuged (10 min, 1000× g, 4 °C). Ultracentrifugation of the supernatant (30 min, 100,000× g, 4 °C) yielded a membrane pellet, which was suspended in 125 µL 50 mM Tris/HCl-buffer (pH 7.4) per T175 flask and stored at −80 °C. Ten confluent T175 flask were processed for one batch.
(§2) The membrane-bound activity was recovered by filtration through GF/B filter paper pre-soaked in 0.1 % PEI and measured with a liquid scintillation counter. Maximum binding was measured by using 5 µL plain DMSO, and nonspecific binding was measured by using 5 µL 1 µM scopolamine in DMSO. […] Then, 3–12 µL membrane suspension were used per tube. IC50 values were calculated by a variable slope logistic regression using at least five distinct concentrations of test compound, pipetted in triplicates.

human mAChR M3 = biological target: T2, human mAChR M3 (Homo sapiens, UniProt P20309); assay: competitive radioligand binding assay with [3H]NMS on CHO cell membranes, M3; settings: n ≥ 3, ± standard deviation, read-out: Inhibition constants (Ki) M3
T2 construct: host or cells: CHO-K1
T2 sequence (P20309 whole entry): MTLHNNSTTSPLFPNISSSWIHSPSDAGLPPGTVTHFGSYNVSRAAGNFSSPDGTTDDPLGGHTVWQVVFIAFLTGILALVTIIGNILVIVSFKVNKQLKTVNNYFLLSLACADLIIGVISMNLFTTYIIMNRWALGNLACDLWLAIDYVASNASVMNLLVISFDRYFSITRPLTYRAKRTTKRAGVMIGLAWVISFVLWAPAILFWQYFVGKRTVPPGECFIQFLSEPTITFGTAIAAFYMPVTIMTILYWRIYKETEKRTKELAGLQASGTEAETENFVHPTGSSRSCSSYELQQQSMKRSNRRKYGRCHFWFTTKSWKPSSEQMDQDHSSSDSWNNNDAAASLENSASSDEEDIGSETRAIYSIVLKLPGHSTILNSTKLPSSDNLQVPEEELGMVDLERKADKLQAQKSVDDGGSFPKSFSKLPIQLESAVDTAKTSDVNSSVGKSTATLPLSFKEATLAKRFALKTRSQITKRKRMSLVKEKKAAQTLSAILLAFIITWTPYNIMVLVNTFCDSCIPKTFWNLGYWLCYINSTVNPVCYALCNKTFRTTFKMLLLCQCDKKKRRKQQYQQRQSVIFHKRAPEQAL
Procedure: as §1, §2

human mAChR M5 = biological target: T3, human mAChR M5 (Homo sapiens, UniProt P08912); assay: competitive radioligand binding assay with [3H]NMS on CHO cell membranes, M5; settings: n ≥ 3, ± standard deviation, read-out: Inhibition constants (Ki) M5
T3 construct: host or cells: CHO-K1
T3 sequence (P08912 1-532): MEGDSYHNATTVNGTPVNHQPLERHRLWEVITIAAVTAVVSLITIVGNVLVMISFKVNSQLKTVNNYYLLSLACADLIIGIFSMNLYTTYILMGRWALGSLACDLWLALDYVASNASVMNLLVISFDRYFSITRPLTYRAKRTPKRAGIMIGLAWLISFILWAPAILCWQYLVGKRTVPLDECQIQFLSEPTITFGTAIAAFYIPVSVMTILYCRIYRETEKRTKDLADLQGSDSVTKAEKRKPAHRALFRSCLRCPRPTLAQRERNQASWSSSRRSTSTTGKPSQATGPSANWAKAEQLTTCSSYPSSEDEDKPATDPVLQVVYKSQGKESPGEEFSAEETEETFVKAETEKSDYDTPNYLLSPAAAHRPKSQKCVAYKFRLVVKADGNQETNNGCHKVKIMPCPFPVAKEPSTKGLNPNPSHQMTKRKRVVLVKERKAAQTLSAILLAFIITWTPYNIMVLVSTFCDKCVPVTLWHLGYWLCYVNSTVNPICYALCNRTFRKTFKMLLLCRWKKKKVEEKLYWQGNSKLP
Procedure: as §1, §2

[1] = stability in Ham's F12 cell culture medium at 37 °C (UV-HPLC); format: physicochemical; settings: for decomposed after 2 h: linear interpolation between 0 h and 10 h
Procedure: (§3) First, 1089 µL DPBS or Ham’s F12 nutrient mixture were mixed with 11 µL of 10 mM stock solution of 1, 2, or 3 in DMSO (final DMSO content: 1%) and agitated at 37 °C. Then, 80 µL of the solution was analyzed by UV-HPLC (216 nm) using an XSelect™ (HSS T3, 3.5 μm, 100 × 4.6 mm) stationary phase and 40% acetonitrile in 25 mM (NH4)H2PO4 buffer (pH 9.3) at a flow of 1 mL/min (k1,2 = 5.6, k3 = 5.9). The fraction of stable compounds was calculated as the area under the curve of the compound peak for each combination of compound and matrix related to the 0 h time point with 100%. Three non-consecutive HPLC analyses were performed for each time point, combination of compounds, and matrix.

human mAChR M4 = biological target: T4, human mAChR M4 (Homo sapiens, UniProt P08173); assay: competitive radioligand binding assay with [3H]NMS on CHO cell membranes, M4; settings: n ≥ 3, ± standard deviation, read-out: Inhibition constants (Ki) M4
T4 construct: host or cells: CHO-K1
T4 sequence (P08173 1-479): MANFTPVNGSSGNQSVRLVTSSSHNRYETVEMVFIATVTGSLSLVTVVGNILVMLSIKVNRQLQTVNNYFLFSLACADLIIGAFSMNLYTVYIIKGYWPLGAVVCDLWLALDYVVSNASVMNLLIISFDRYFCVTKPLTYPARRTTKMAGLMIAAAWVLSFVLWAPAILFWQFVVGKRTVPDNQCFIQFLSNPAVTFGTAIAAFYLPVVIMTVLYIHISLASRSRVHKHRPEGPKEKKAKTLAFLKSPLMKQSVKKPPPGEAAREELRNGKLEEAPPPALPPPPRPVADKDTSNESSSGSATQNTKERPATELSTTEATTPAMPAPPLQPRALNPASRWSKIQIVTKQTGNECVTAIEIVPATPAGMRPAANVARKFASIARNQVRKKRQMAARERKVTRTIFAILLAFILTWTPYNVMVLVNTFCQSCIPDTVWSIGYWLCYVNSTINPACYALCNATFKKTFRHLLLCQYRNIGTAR
Procedure: as §1, §2

[2] = stability in DPBS at 37 °C (UV-HPLC); format: physicochemical; settings: for decomposition after 60 h: Sidak's multiple comparisons test; for decomposed after 2 h: linear interpolation between 0 h and 10 h
Procedure: as §3

mAChR M1 [3] = biological target: T5, mAChR M1 (Homo sapiens, UniProt P11229); assay: Fluo-4 direct calcium assay, antagonist mode (block of carbachol response), CHO-M1 cells; format: cell-based; settings: 20 µM carbachol
T5 construct: host or cells: CHO-K1
T5 sequence (P11229 1-460): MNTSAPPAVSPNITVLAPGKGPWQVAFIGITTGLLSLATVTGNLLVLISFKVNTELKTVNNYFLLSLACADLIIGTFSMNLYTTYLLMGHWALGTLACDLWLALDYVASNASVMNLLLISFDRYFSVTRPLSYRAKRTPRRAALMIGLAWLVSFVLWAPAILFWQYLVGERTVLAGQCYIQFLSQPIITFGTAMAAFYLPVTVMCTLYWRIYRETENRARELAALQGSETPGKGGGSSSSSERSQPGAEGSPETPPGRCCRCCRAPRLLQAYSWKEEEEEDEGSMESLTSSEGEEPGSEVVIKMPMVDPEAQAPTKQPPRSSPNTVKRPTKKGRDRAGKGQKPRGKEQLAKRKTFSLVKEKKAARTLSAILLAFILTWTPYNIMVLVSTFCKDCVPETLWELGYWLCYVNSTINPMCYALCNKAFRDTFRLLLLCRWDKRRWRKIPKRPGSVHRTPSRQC
Procedure: (§4) For the Fluo-4 direct^TM calcium assay kit (invitrogen), 100 µL of a 5 × 10^5 cells/mL suspension of CHO-M1 cells were seeded in black clear bottom 96-well plates (Corning). After settling of the cells for 24 h, the kit was performed according to the supplier’s recommendation. In detail, the media was removed, and 50 µL of Hanks-balanced salt solution (HBSS; Sigma Aldrich) were added, followed by 50 µL of the Fluo-4 buffer solution (including probenecid). The 96-well plates were incubated for 60 min at 37 °C in the dark. For the agonist assay, 100 µL of a double-concentrated dilution series of carbachol (positive control), 1, 2, and 3 were added with the end concentration of 100, 10, 1, 0.1, 0.01 and 0.001 µM in duplicates. The relative fluorescence was measured with an excitation wavelength of 494 nm and an emission wavelength of 516 nm. For the antagonist assay, 50 µL of a 4-fold concentrated dilution series of scopolamine hydrochloride (positive control), 1, 2, and 3 were added in duplicates. Subsequently a 40 µM stock solution of carbachol was added to all wells, and the relative fluorescence was measured with an excitation wavelength of 494 nm and an emission wavelength of 516 nm. Stock solution of 1, 2, and 3 were in DMSO with a final concentration of at most 1% of DMSO. All experiments were performed at least in three repetitions.

mAChR M1 [4] = biological target: T5, mAChR M1; assay: competitive radioligand binding assay with [3H]NMS on CHO cell membranes, M1; settings: for Ki: CHO cell membranes, [3H]NMS, n ≥ 3, ± standard deviation, read-out: Inhibition constants (Ki) M1
Procedure: as §1, §2

HPLC-logP determination = format: physicochemical; settings: HPLC on apHERA stationary phase (5 µm, 10 × 6 mm), pH 7.4; read-out: HPLC-logPow pH7.4
mAChR M1 [5] = biological target: T5, mAChR M1; assay: Fluo-4 direct calcium assay, agonist mode, CHO-M1 cells; format: cell-based; settings: 0.001-100 µM
Procedure: as §4

[6] = pH 7.4; cited from earlier work

| Ki (human mAChR M2) | Ki (human mAChR M3) | Ki (human mAChR M5) | decomposed after 2 h [1] | Ki (human mAChR M4) | decomposition after 60 h [2] | decomposed after 2 h [2] | functionality (block of calcium response to carbachol) (mAChR M1 [3]) | Ki (mAChR M1 [4]) | chromatographic logD (HPLC-logP determination) | calcium release (agonistic activity) (mAChR M1 [5]) | decomposition after 60 h [1] | selectivity between M1 and M2 (mAChR M1 [4]; Ki M2 divided by Ki M1) | M1 over M4 subtype selectivity (mAChR M1 [4]; Ki M4 divided by Ki M1, Ki values of this work) | SMILES | HPLC-logPow pH7.4 [6] |
| --- | --- | --- | --- | --- | --- | --- | --- | --- | --- | --- | --- | --- | --- | --- | --- |
| 3.7 ± 1 µM | 3.2 ± 0.5 µM | 0.97 ± 0.09 µM | 2.5% | 1.6 ± 0.2 µM | decomposed to the same extent | 0.8% | antagonistic binding | 0.38 ± 0.09 µM | 2.39 ± 0.1 | no increase in calcium release |  |  |  | CN1CCC=C(C(=O)O[C@@H](c2ccccc2)[C@H](O)c2ccccc2)C1 (racemic) [compound 3, Rac. (1S,2R)-2-hydroxy-1,2-diphenylethyl 1-methyl-1,2,5,6-tetrahydropyridine-3-carboxylate] |  |
|  |  |  |  |  |  |  |  |  |  |  |  |  |  | CN1CCC=C(C(=O)OC(c2ccccc2)c2ccccc2)C1 [arecaidine diphenylmethyl ester] | 3.32 ± 0.04 |
| 1.9 ± 0.3 µM | 1.3 ± 0.6 µM | 0.6 ± 0.075 µM | 2.5% | 0.7 ± 0.3 µM | decomposed to the same extent | 0.8% | antagonistic binding | 0.099 ± 0.019 µM | 2.24 ± 0.12 | no increase in calcium release | significantly stronger compared to 2 | 19 fold | 7 fold | CN1CCC=C(C(=O)O[C@H](c2ccccc2)[C@H](O)c2ccccc2)C1 [compound 1, (1R,2R)-(+)-2-hydroxy-1,2-diphenylethyl 1-methyl-1,2,5,6-tetrahydropyridine-3-carboxylate] |  |
| 8 ± 2 µM | 1.6 ± 0.3 µM | 1.3 ± 0.3 µM | 2.5% | 2.7 ± 0.6 µM | decomposed to the same extent | 0.8% | antagonistic binding | 0.8 ± 0.2 µM | 2.24 ± 0.12 | no increase in calcium release |  |  |  | CN1CCC=C(C(=O)O[C@@H](c2ccccc2)[C@@H](O)c2ccccc2)C1 [compound 2, (1S,2S)-(−)-2-hydroxy-1,2-diphenylethyl 1-methyl-1,2,5,6-tetrahydropyridine-3-carboxylate] |  |
